# Assay results: patent US20120095108A1, “COMPOSITION CONTAINING MICROBIAL ZEAXANTHIN AND PREPARATION THEREOF” (Vigenent Inc., priority 2010, published 2012)
# Columns and labels:
# [1] = Lipid peroxidation inhibitory activity, ferric thiocyanate method; assay type: biochemical; details: 60 μg/ml; OD 500 nm; 24 hours incubation 37° C.
# Procedure: Microbial zeaxanthin was dissolved in 0.2 M potassium phosphate buffer and mixed with linoleic acid emulsion mixture prepared by potassium phosphate buffer. After 24 hours incubation in 37° C., the mixture was added with 75% ethanol, ammonium thiocyanate, and iron(II) chloroide tetrahydrate. The absorbance at 500 nm was determined after 1 min incubation. Inhibtion activity=[1−(Abs of sample/Abs of blank)]*100%.
# [2] = Lipid peroxidation inhibitory activity, conjugated diene method; assay type: biochemical; details: 30 μg/ml; OD 234 nm; 15 hour incubation 37° C.
# Procedure: Microbial zeaxanthin was dissolved in 0.2 M potassium phosphate buffer and mixed with linoleic acid emulsion mixture prepared by potassium phosphate buffer. The absorbance of 234 nm was determined after 15 hour incubation in 37° C. Inhibition activity=[1−(Abs of sample/Abs of blank)]*100%.
# [3] = system: B16/F10 melanoma cells; assay: Melanin content in melanoma cells; assay type: cell-based; details: Mus musculus, OD 400 nm; for inhibition at 2 µg/mL: 2 μg/ml; for inhibition at 20 µg/mL: 20 μg/ml
# Procedure: B16 F0 mouse melanoma cells were cultured on the dish. The cells were treated with microbial zeaxanthin dissolved in dimethyl sulfoxide. After treated for 24 hrs and 48 hrs, respectively, the medium was removed and the cells were washed with PBS and then dissolved in 1 N NaOH containing 10% DMSO. The relative melanin content was determined at OD400 nm.
# [4] = system: Human skin fibroblast cells (CCD-966SK cell line); assay: Photoprotection activity: viability of UV-irradiated human skin fibroblast cells; assay type: cell-based; details: 15 min UV irradiation, determined at 24 hours
# Procedure: Human skin fibroblast cells (CCD-966SK cell line) were cultured on the dish. The cells were treated with microbial zeaxanthin dissolved in dimethyl sulfoxide. After treated for 24 hours the dishes were irradiated UV for 15 min and the cells were incubated for 24 hours. The cells were detached by trypsin and counted by hemocytometer. The protection effect of microbial zeaxanthin on the viability of fibroblast cells is provided (FIG. 3).
# Skin fibroblast cells, the essential cells of skin, are responsible for the production of collagen, a structural component of the skin (Stanley et al., (1985) J Invest Dermatol. 85:542-545; Olsen et al., (1989) J. Clin. Invest. 83: 791-795; Akagi et al., (1999) J. Invest. Dermatol. 113: 246-250). Collagen reduction is a biological phenomenon responsible for the wrinkled appearance found in the aged skin caused either intrinsic (chronologic aging) or extrinsic (e.g., photoaging: exposure to UV irradiation) (Burke et al., (1994) Exp Gerontol 29:37-53; Fisher et al., (1997) New Eng J Med 337:1419-1428; Fligiel et al., (2003) J Invest Dermatol. 120:842-848; Varani et al., (2006) Am J Pathol. 168:1861-8; Chauhan and Shakya, (2009) Indian J Dermatol Venereol Leprol. 75:463-8). […]
# [5] = Total antioxidant activity, TEAC (trolox equivalent antioxidant capacity) method; assay type: biochemical; details: OD 734 nm
# Procedure: Microbial zeaxanthin was dissolved in 0.01M sodium phosphate buffer and mixed with 2,2′-azino-bis(3-ethylbenzthiazoline-6-sulphonic acid) containing potassium persulfate. The absorbance at 734 nm was determined after 30 min incubation. Inhibition activity=[1−(Abs of sample/Abs of blank)]*100%.
# [6] = Antioxidant activity, DPPH free radical scavenging method; assay type: biochemical; details: OD 517 nm
# Procedure: Microbial zeaxanthin was dissolved in methanol and mixed with 2,2-diphenyl-1-picrylhydrazyl in methanol. The absorbance at 517 nm was determined after 30 min incubation. Inhibition activity=[1−(Abs of sample/Abs of blank)]*100%.
# [7] = cited from earlier work
# [8] = Lipid peroxidation inhibitory activity, liposome-TBARS method; assay type: biochemical; details: OD 532 nm
# Procedure: Microbial zeaxanthin was dissolved in methanol and mixed with liposome emulsion, iron(III) chloride, and ascorbic acid. After 2 hours water bath in 37° C. the mixture was added with butylated hydorxytoluene, thibarbituric acid, and trichloroacetic acid. After 20 min of water bath (100° C.), the mixture was chilled with ice. The absorbance at 532 nm was determined. MDA (malondialdehyde) inhibiton activity=[1−(Abs of sample/Abs of blank)]*100%.
structure (smiles),measurement,setting,value
"CC1=C[C@H](O)CC(C)(C)[C@H]1/C=C/C(C)=C/C=C/C(C)=C/C=C/C=C(C)/C=C/C=C(C)/C=C/C1=C(C)C[C@@H](O)CC1(C)C [lutein, reference compound]",lipid peroxidation inhibitory activity (ferric thiocyanate method),[1],68.6%
same,lipid peroxidation inhibitory activity (conjugated diene method),[2],68.7%
"CC1=C(/C=C/C(C)=C/C=C/C(C)=C/C=C/C=C(C)/C=C/C=C(C)/C=C/C2=C(C)C[C@@H](O)CC2(C)C)C(C)(C)C[C@H](O)C1 [microbial zeaxanthin, 4-[18-(4-hydroxy-2,6,6-trimethyl-1-cyclohexenyl)-3,7,12,16-tetramethyl-octadeca-1,3,5,7,9,11,13,15,17-nonaenyl]-3,5,5-trimethyl-cyclohex-3-en-1-ol]",inhibition at 2 µg/mL,[3]; 24 hrs,6.74%
same,inhibition at 2 µg/mL,[3]; 48 hrs,32.5%
same,inhibition at 20 µg/mL,[3]; 24 hrs,22.7%
same,inhibition at 20 µg/mL,[3]; 48 hrs,36.7%
same,cell viability increased as compared to no zeaxanthin treatment,[4]; 20 μg/ml,18.9%
same,cell viability increased as compared to no zeaxanthin treatment,[4]; 50 μg/ml,33.7%
same,inhibition on absorbance (TEAC),[5]; 62.5 μg/ml,15.68%
same,inhibition on absorbance (TEAC),[5]; 125 μg/ml,28.13%
same,inhibition on absorbance (TEAC),[5]; 250 μg/ml,53.35%
same,inhibition on absorbance (TEAC),[5]; 500 μg/ml,91.22%
same,inhibition on absorbance (DPPH),[6]; 62.5 μg/ml,10.02%
same,inhibition on absorbance (DPPH),[6]; 125 μg/ml,13.04%
same,inhibition on absorbance (DPPH),[6]; 250 μg/ml,30.18%
same,inhibition on absorbance (DPPH),[6]; 500 μg/ml,48.20%
same,inhibition on absorbance (DPPH),[6]; 1000 μg/ml,96.69%
same,lipid peroxidation inhibitory activity (ferric thiocyanate method),[1],66.9%
same,lipid peroxidation inhibitory activity (conjugated diene method),[2],67.4%
same,Solubility in chloroform,[7]; chloroform,soluble giving a clear intensive orange-red
same,Solubility in ethanol,[7]; ethanol,sparingly
same,Solubility in water,[7]; water,insoluble
same,inhibition on free MDA formation,[8]; 125 μg/ml,55.23%
same,inhibition on free MDA formation,[8]; 250 μg/ml,61.05%
same,inhibition on free MDA formation,[8]; 500 μg/ml,71.16%
same,inhibition on free MDA formation,[8]; 1000 μg/ml,78.45%
same,inhibition on free MDA formation,[8]; 2000 μg/ml,80.75%
